Test results from publication PMC7984254 (Biochimica et biophysica acta. Molecular cell research, 2020).

Tests used:
[1] = system: hippocampal CA1 pyramidal neurons; assay: Ex vivo patch-clamp of hippocampal CA1 pyramidal neurons in brain slices; type: cell-based, mice; settings: 20 μM
[2] = system: Nav1.6; assay: Whole-cell patch-clamp electrophysiology in HEK-Nav1.6 cells; type: cell-based, human
[3] = target: FGF14:Nav1.6 complex (CLuc-FGF14 and CD4-Nav1.6 C-tail-NLuc) (Homo sapiens, UniProt Q92915+Q9UQD0); assay: cell-based; settings: for initial dose/concentration dependency against FGF14:Nav1.6: screening library compound, Suppl. Fig. 3; for activity at 30 µM: HEK293, 2 h, read-out: % luminescence, FGF14:Nav1.6 complex (HTS)
[4] = system: double stable HEK293 cells; assay: CellTiter-Blue; type: cell-based; settings: 30 μM; fluorescence read after 16 h; relative to DMSO controls
[5] = target: FGF14^Y158A:Nav1.6 (Homo sapiens, UniProt Q92915+Q9UQD0, Y153A); assay: LCA dose response, FGF14^Y158A:Nav1.6 mutant complex
[6] = target: FGF14:FGF14 dimer (CLuc-FGF14 and FGF14-NLuc) (Homo sapiens, UniProt Q92915); assay: LCA counter-screen and dose response, FGF14:FGF14 homodimer; type: cell-based; settings: plateau; normalized to 0.3% DMSO

Q: Cc1cnc(Nc2ccc(OCCN3CCCC3)cc2)nc1Nc1cccc(S(=O)(=O)NC(C)(C)C)c1 [Fedratinib] was tested. Which “resting membrane potential, current threshold and voltage threshold for action potential firing” value ([1]; Fgf14^+/+ mice) did it give?
A: no significant changes

Q: And the “maximum number of evoked action potentials (AP)” value ([1]; Fgf14^+/+ mice, 1 hr slice incubation)?
A: 11.3 ± 1.4

Q: And the evoked action potentials ([1]; Fgf14^−/− mice, 1 hr slice incubation)?
A: 11.8 ± 2.7

Q: What about the V½ of activation ([2]; HEK-Nav1.6 FGF14-GFP, 20 μM) of the same compound?
A: −30.56 ± 1.9 mV

Q: What about the “V½ of steady-state inactivation” value ([2]; HEK-Nav1.6 FGF14-GFP, 20 μM) of the same compound?
A: −60.8 ± 1.2 mV

Q: And the “decay time constant (τ) of INa” value ([2]; HEK-Nav1.6 FGF14-GFP, 20 μM)?
A: 1.4 ± 0.06 ms

Q: And the “peak transient Na+ current (INa) density” value ([2]; HEK-Nav1.6 FGF14-GFP, 20 μM)?
A: −81.27 ± 11.3 pA/pF

Q: And the “long-term inactivation (LTI), normalized INa at pulse 3” value ([2]; HEK-Nav1.6 FGF14-GFP, 30 min incubation, pulse 3)?
A: 0.89 ± 0.02%

Q: What about the “effect on long-term inactivation (LTI)” value ([2]; HEK-Nav1.6 FGF14^Y158A) of the same compound?
A: no effect

Q: What about the “peak transient Na+ current (INa) density” value ([2]; HEK-Nav1.6 FGF14^Y158A-GFP, 20 μM) of the same compound?
A: −26.65 ± 3.5 pA/pF

Q: And the V½ of activation ([2]; HEK-Nav1.6 FGF14^Y158A, 20 μM)?
A: −22.69 ± 1.2 mV

Q: What about the “V½ of steady-state inactivation, change compared to DMSO” value ([2]; HEK-Nav1.6 FGF14^Y158A, 20 μM) of the same compound?
A: no significant change

Q: What about the “decay time constant (τ) of INa” value ([2]; HEK-Nav1.6 FGF14^Y158A, 20 μM) of the same compound?
A: 1.8 ± 0.11 ms

Q: What about the “peak transient Na+ current (INa) density” value ([2]; HEK-Nav1.6 GFP (channel alone), 20 μM) of the same compound?
A: −59.43 ± 6.0 pA/pF

Q: And the V½ of activation ([2]; HEK-Nav1.6 GFP, 20 μM)?
A: −25.7 ± 1.7 mV

Q: What about the “V½ of steady-state inactivation” value ([2]; HEK-Nav1.6 GFP, 20 μM) of the same compound?
A: −61.7 ± 1.0 mV

Q: What about the “decay time constant (τ) of INa” value ([2]; HEK-Nav1.6 GFP, 20 μM) of the same compound?
A: 1.3 ± 0.07 ms

Q: For NC(=O)c1cnc(N[C@@H]2CCCC[C@@H]2N)nc1Nc1cccc(-n2nccn2)c1 [PRT062607], which “initial dose/concentration dependency against FGF14:Nav1.6” value (shortened to “initial dose/concentration dependency”) [3] is on record?
A: promising concentration dependency

Q: O=C(Nc1ccc([N+](=O)[O-])cc1Cl)c1cc(Cl)ccc1O [Niclosamide] was tested. Which activity at 30 µM [3] did it give?
A: 18.7%

Q: For Cc1ccc2c(=O)c3ccccc3n(CCCN)c2c1C.O=C(O)C(=O)O [ER 27319], which “initial dose/concentration dependency” value [3] is on record?
A: less ideal

Q: For O=[N+]([O-])c1ccc2c(c1)S(=O)(=O)C=C2 [Stattic], which “% fluorescence from the CTB assay (cell viability)” value [4] is on record?
A: 57.2%

Q: For N#CCNC(=O)c1ccc(-c2ccnc(Nc3ccc(N4CCOCC4)cc3)n2)cc1 [Momelotinib], which “effect on FGF14^Y158A:Nav1.6 complex compared with FGF14^WT” value [5] is on record?
A: abolished

Q: With Cc1cnc(Nc2ccc(N3CCN(C)CC3)cc2)nc1Nc1cccc(S(=O)(=O)NC(C)(C)C)c1 [TG101209] as the compound, how does the “FGF14:FGF14^WT IMin/EMax” value [6] read?
A: 150.6 percent luminescence

Q: What about the “FGF14^Y158A:Nav1.6 IMin/EMax” value ([5]; plateau, normalized to 0.3% DMSO) of the same compound?
A: 78.0 percent luminescence

Q: With C[C@H]1[C@H](C)CC[C@]2(C(=O)O)CC[C@]3(C)C(=CC[C@@H]4[C@@]5(C)CC[C@H](O)C(C)(C)[C@@H]5CC[C@]43C)[C@H]12 [Ursolic Acid] as the compound, how does the activity at 30 µM [3] read?
A: 104%

Q: With CC(C)(O)/C=C/C(=O)[C@](C)(O)[C@H]1[C@H](O)C[C@@]2(C)[C@@H]3CC=C4[C@@H](C=C(O)C(=O)C4(C)C)[C@]3(C)C(=O)C[C@]12C [Cucurbitacin I] as the compound, how does the activity at 30 µM [3] read?
A: 5.6%

Q: And the “initial dose/concentration dependency” value [3]?
A: highly potent but undesirable curve shape

Q: For C1=C/COCc2cc(ccc2OCCN2CCCC2)Nc2nccc(n2)-c2cccc(c2)COC/1 [Pacritinib], which “effect on FGF14^Y158A:Nav1.6 complex compared with FGF14^WT” value [5] is on record?
A: abolished
